According to PubChem BioAssay AID2060359 (Molecular Pharmacology Branch, DTP, NCI, 2025):

Tested on: 276233-004-R-J1-PDC spheroids with HUVEC/MSC, viability
Assay: Anticancer human tumor 276233-004-R-J1-PDC patient-derived colon adenocarcinoma cell line growth inhibition [TAK]
Conditions: for IC50: curve of first compound; for viability, T/C: stronger effect = lower value
Source text: Combinatorial screen of targeted agents with TAK-243 and ipatasertib in multi-cell type tumor spheroids
A high-throughput screen of multi-cell type tumor spheroids was designed to identify active combinations of targeted small molecules and TAK-243 or ipatasertib. Complex spheroids include a stromal component modeled by human endothelial cells (HUVEC) and fibroblasts modeled by human mesenchymal stem cells (MSCs). The concentration ranges selected for each drug and investigational agent were based upon clinically achievable concentrations if the clinical Cmax of the agent was known.
Compounds. The drugs and investigational agents: TAK-243 (785004), ipatasertib (767898), everolimus (733504), selumetinib (741078), bortezomib (756655), trametinib (758246), ixazomib (758254), vemurafenib (761431), dabrafenib (764134), sapanisertib (764658), alpelisib (765974), and copanlisib (816437), were obtained from the National Cancer Institute (NCI) Developmental Therapeutics Program Chemical Repository. The FDA-approved anticancer drug set is available from the NCI Developmental Therapeutics Program. […] The stock solutions were prepared in dimethyl sulfoxide (DMSO, Sigma-Aldrich, St. Louis, MO, cat. D2650) at 800-fold the tested concentration and stored at -70 degrees C prior to their use. All drugs and investigational agents were tested over a range starting from a high concentration at or near the clinical Cmax and decreasing in half-log increments. If the clinical Cmax for an agent had not been determined, the highest concentration tested was 10 microM.
NCI60 Cell Culture. NCI60 cell lines were obtained from the NCI Developmental Therapeutics Program Tumor Repository. For each lot of cells, the Repository performed Applied Biosystems AmpFLSTR Identifiler testing with PCR amplification to confirm consistency with the published Identifier STR profile for each cell line. Cells were kept in continuous culture for no more than 20 passages. The optimal seeding densities for each of the cell lines at each time point assessed were determined prior to performing the concentration response studies. Briefly, the NCI60 human tumor lines were grown as monolayers in RPMI 1640 medium supplemented with 10% FBS and 2 mmol/L L-glutamine.
An additional 2 lines were from the NCI60 cell line panel including melanomas, MALME-3M and SK-MEL-2. Pooled donor human umbilical vein endothelial cells (HUVEC, Lonza, cat. CC-2519) and human mesenchymal stem cells (hMSC, Lonza, cat. PT-2501) were purchased from Lonza (Walkersville, MD).
PDMR cell lines were grown in complete medium (DC medium): Dulbecco's modified Eagle's medium (DMEM)/F12 supplemented with 5% fetal bovine serum (FBS), 2 mM L-glutamine, 100 U/mL penicillin and 100 µg/ml streptomycin, 0.4 µg/ml hydrocortisone, 10 ng/ml epidermal growth factor (EGF) recombinant human protein, 24 µg/mL adenine, and 0.1 mg/mL primocin. During culture from frozen stock vials, PDMR cells were cultured in the same medium containing 10 µM Y-27632 (see Table 3). The PDCs were cultured in complete DMEM/F12 media without 10 microM Y-27632 dihydrochloride for at least two passages prior to the screen. The pooled donor HUVEC and hMSC were cultured in endothelial cell growth medium 2 (PromoCell, Heidelberg, Germany, cat. C-22011) and mesenchymal stem cell growth medium 2 (PromoCell, cat. C-28009), respectively. For all experiments, HUVEC and hMSC were used at passages </=5.
For the pre-screen, cell seeding densities were determined from a titration spanning the range from 5,000 to 313 cells per well. The mct-spheroids including 60% malignant cells, 25% HUVEC and 15% MSC dispensed as a mixture into U-bottom Ultra-Low Attachment 384-well plates (Corning, NY)
High-throughput Drug Combination Screening.
Prior to their inoculation into 384-well plates, malignant cells, HUVEC, and hMSC were removed from T flasks using TrypLE express (Thermo Fisher Scientific, cat. 12605036) and harvested by centrifugation for 5 min at 233 x g. […]
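Also: spheroids exposed to drugs for seven days before the viability read.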

`COC1CC2CCC(C)C(O)(O2)C(=O)C(=O)N2CCCCC2C(=O)OC(C(C)CC2CCC(OCCO)C(OC)C2)CC(=O)C(C)C=C(C)C(O)C(OC)C(=O)C(C)CC(C)C=CC=CC=C1C` (stereo not given) + CC(C)NCC(C(=O)N1CCN(c2ncnc3c2C(C)CC3O)CC1)c1ccc(Cl)cc1 gave an IC50 (second compound 0.3 µM) of over 100 nM, an IC50 (second compound 0.949 µM) of over 100 nM and an IC50 (second compound 3 µM) of over 100 nM. For the same molecule, the IC50 (second compound 9.49 µM) was over 100 nM, the IC50 (second compound 30 µM) was over 100 nM and the viability, T/C (second compound 0.3 µM, first compound 0.000316 µM) was 126%. The viability, T/C (second compound 0.3 µM, first compound 0.001 µM) was 81.9%, the viability, T/C (second compound 0.3 µM, first compound 0.00316 µM) was 75.9% and the viability, T/C (second compound 0.3 µM, first compound 0.01 µM) was 79.3%. The viability, T/C (second compound 0.3 µM, first compound 0.0316 µM) was 67.5%, the viability, T/C (second compound 0.3 µM, first compound 0.1 µM) was 71.3% and the viability, T/C (second compound 0.949 µM, first compound 0.000316 µM) was 74.3%. It also gave a viability, T/C (second compound 0.949 µM, first compound 0.001 µM) of 93.3%, a viability, T/C (second compound 0.949 µM, first compound 0.00316 µM) of 81.9% and a viability, T/C (second compound 0.949 µM, first compound 0.01 µM) of 70.5%. For the same molecule, the viability, T/C (second compound 0.949 µM, first compound 0.0316 µM) was 68.3%, the viability, T/C (second compound 0.949 µM, first compound 0.1 µM) was 58.4% and the viability, T/C (second compound 3 µM, first compound 0.000316 µM) was 72.3%. It also gave a viability, T/C (second compound 3 µM, first compound 0.001 µM) of 65.5%, a viability, T/C (second compound 3 µM, first compound 0.00316 µM) of 57.4% and a viability, T/C (second compound 3 µM, first compound 0.01 µM) of 68.2%. It also gave a viability, T/C (second compound 3 µM, first compound 0.0316 µM) of 54.9%, a viability, T/C (second compound 3 µM, first compound 0.1 µM) of 57.9% and a viability, T/C (second compound 9.49 µM, first compound 0.000316 µM) of 55.9%. For the same molecule, the viability, T/C (second compound 9.49 µM, first compound 0.001 µM) was 57.3%, the viability, T/C (second compound 9.49 µM, first compound 0.00316 µM) was 49.1% and the viability, T/C (second compound 9.49 µM, first compound 0.01 µM) was 53.6%. The viability, T/C (second compound 9.49 µM, first compound 0.0316 µM) was 51.4%, the viability, T/C (second compound 9.49 µM, first compound 0.1 µM) was 54.1% and the viability, T/C (second compound 30 µM, first compound 0.000316 µM) was 53.8%. For the same molecule, the viability, T/C (second compound 30 µM, first compound 0.001 µM) was 61%, the viability, T/C (second compound 30 µM, first compound 0.00316 µM) was 48.2% and the viability, T/C (second compound 30 µM, first compound 0.01 µM) was 54.2%. For the same molecule, the viability, T/C (second compound 30 µM, first compound 0.0316 µM) was 59% and the viability, T/C (second compound 30 µM, first compound 0.1 µM) was 51.7%.
For `Cn1cnc2c(F)c(Nc3ccc(Br)cc3Cl)c(C(=O)NOCCO)cc21` + CC(C)NCC(C(=O)N1CCN(c2ncnc3c2C(C)CC3O)CC1)c1ccc(Cl)cc1, the IC50 (second compound 0.3 µM) was 462 nM, the IC50 (second compound 0.949 µM) was 361 nM and the IC50 (second compound 3 µM) was 145 nM. It also gave an IC50 (second compound 9.49 µM) of 63.8 nM, an IC50 (second compound 30 µM) of 9.49 nM and a viability, T/C (second compound 0.3 µM, first compound 0.00949 µM) of 79.5%. For the same molecule, the viability, T/C (second compound 0.3 µM, first compound 0.03 µM) was 82.8%, the viability, T/C (second compound 0.3 µM, first compound 0.0949 µM) was 65.4% and the viability, T/C (second compound 0.3 µM, first compound 0.3 µM) was 52%. For the same molecule, the viability, T/C (second compound 0.3 µM, first compound 0.949 µM) was 49.8%, the viability, T/C (second compound 0.3 µM, first compound 3 µM) was 38.5% and the viability, T/C (second compound 0.949 µM, first compound 0.00949 µM) was 73.6%. It also gave a viability, T/C (second compound 0.949 µM, first compound 0.03 µM) of 68.5%, a viability, T/C (second compound 0.949 µM, first compound 0.0949 µM) of 57.9% and a viability, T/C (second compound 0.949 µM, first compound 0.3 µM) of 52.2%. For the same molecule, the viability, T/C (second compound 0.949 µM, first compound 0.949 µM) was 43.1%, the viability, T/C (second compound 0.949 µM, first compound 3 µM) was 33.3% and the viability, T/C (second compound 3 µM, first compound 0.00949 µM) was 67.2%. The viability, T/C (second compound 3 µM, first compound 0.03 µM) was 61.1%, the viability, T/C (second compound 3 µM, first compound 0.0949 µM) was 54.4% and the viability, T/C (second compound 3 µM, first compound 0.3 µM) was 42%. For the same molecule, the viability, T/C (second compound 3 µM, first compound 0.949 µM) was 39.7%, the viability, T/C (second compound 3 µM, first compound 3 µM) was 31.4% and the viability, T/C (second compound 9.49 µM, first compound 0.00949 µM) was 64%. It also gave a viability, T/C (second compound 9.49 µM, first compound 0.03 µM) of 57.1%, a viability, T/C (second compound 9.49 µM, first compound 0.0949 µM) of 45.6% and a viability, T/C (second compound 9.49 µM, first compound 0.3 µM) of 40.4%. For the same molecule, the viability, T/C (second compound 9.49 µM, first compound 0.949 µM) was 32.7%, the viability, T/C (second compound 9.49 µM, first compound 3 µM) was 28.9% and the viability, T/C (second compound 30 µM, first compound 0.00949 µM) was 50.1%. It also gave a viability, T/C (second compound 30 µM, first compound 0.03 µM) of 45.2%, a viability, T/C (second compound 30 µM, first compound 0.0949 µM) of 42.5% and a viability, T/C (second compound 30 µM, first compound 0.3 µM) of 52%. For the same molecule, the viability, T/C (second compound 30 µM, first compound 0.949 µM) was 28.9% and the viability, T/C (second compound 30 µM, first compound 3 µM) was 33.1%.
